# Experimental data: patent US7781445B2, “Synthesis of indenoisoquinoliniums and methods of use” (Purdue Research Foundation, priority 2005, dated 2010)
# Like-named read-outs stand apart in the source and are kept apart here.
# Experiments:
# [1] = test system: SF-539; assay: COMPARE screening (NCI), GI50 in SF-539; conditions: Homo sapiens, read-out: Cytotoxicity GI50, CNS SF-539
# Text: (§1) This in vitro prescreening system is based on the measurement of anticancer cytotoxicity against human cancer cell line panels consisting of approximately 60 cell lines of major human cancers (including leukemia, and slower growing tumor cells such as lung, colon, breast, skin, kidney, etc.) and is referred hereinafter as “COMPARE” screening.
# (§2) COMPARE screening. The compounds described herein were examined for antiproliferative activity against the human cancer cell lines in the National Cancer Institute screen (COMPARE screening), in which the activity of each compound was evaluated with approximately 55 different cancer cell lines of diverse tumor origins. […] Therefore, the MGM value represents an overall assessment of toxicity of the compound across numerous cell lines.
# [2] = test system: SN12C; assay: COMPARE screening (NCI), GI50 in SN12C
# Text: as §1, §2
# [3] = test system: MDA-MB-435; assay: COMPARE screening (NCI), GI50 in MDA-MB-435
# Text: as §1, §2
# [4] = test system: OVCAR-3; assay: COMPARE screening (NCI), GI50 in OVCAR-3
# Text: as §1, §2
# [5] = test system: all human cancer cell lines successfully tested (approximately 55); assay: COMPARE screening, mean graph midpoint (MGM); assay type: cell-based; conditions: average GI50 over all cell lines tested, values outside 10^-8 to 10^-4 molar taken as the limits, read-out: MGM (mean graph midpoint for growth inhibition); for MGM (mean GI50 across cell lines): Homo sapiens
# Text: as §1, §2
# [6] = biological target: T1, topoisomerase I (Homo sapiens, UniProt P11387); assay: Topoisomerase I-mediated DNA cleavage, 3'-end-labeled 161 bp pBluescript SK(-) fragment; assay type: biochemical; conditions: for top1-mediated DNA cleavage band at site 37 / top1-mediated DNA cleavage band at site 44: FIG. 1; for top1-mediated DNA cleavage band at site 37: cleavage site 37; for top1-mediated DNA cleavage band at site 44: cleavage site 44; for Top 1 Cleavage: tested at concentrations ranging up to 10 μM, semi-quantitative relative to compound A
# T1 sequence (P11387 1-765): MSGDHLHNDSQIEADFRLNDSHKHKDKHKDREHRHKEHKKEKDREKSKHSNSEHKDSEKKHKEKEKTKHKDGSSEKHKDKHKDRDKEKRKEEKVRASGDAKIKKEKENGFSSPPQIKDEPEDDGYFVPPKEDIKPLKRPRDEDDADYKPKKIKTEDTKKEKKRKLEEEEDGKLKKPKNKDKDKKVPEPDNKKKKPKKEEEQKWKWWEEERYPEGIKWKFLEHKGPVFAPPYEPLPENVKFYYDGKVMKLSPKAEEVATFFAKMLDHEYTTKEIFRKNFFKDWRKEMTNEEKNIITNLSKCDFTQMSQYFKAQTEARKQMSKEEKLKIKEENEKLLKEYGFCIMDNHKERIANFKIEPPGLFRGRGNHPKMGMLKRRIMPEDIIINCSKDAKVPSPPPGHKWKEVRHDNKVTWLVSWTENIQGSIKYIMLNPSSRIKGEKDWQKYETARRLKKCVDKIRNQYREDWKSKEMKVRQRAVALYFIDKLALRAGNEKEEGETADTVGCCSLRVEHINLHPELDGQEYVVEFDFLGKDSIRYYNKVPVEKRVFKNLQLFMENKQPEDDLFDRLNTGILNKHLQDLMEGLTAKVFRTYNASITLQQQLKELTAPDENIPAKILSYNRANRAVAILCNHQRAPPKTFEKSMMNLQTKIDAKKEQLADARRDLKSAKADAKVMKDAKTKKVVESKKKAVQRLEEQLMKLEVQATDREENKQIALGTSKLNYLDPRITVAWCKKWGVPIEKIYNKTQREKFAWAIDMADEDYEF
# Method: The assays were carried out at room temperature for 30 min and stopped by adding 0.5% SDS. […] Topoisomerase I was present in all reaction mixtures except for the one corresponding to the first lane.
# Induction of DNA cleavage.
# Labeling reactions were followed by phenol-chloroform extraction and ethanol precipitation. […] Reactions were terminated by adding 0.5% SDS.
# DNA Cleavage Semiquantitative Analysis. […] The rubberband baseline correction was applied with band detection sensitivity set at 90.
# [7] = test system: DU-145; assay: COMPARE screening (NCI), GI50 in DU-145
# Text: as §1, §2
# [8] = test system: UACC-62; assay: COMPARE screening (NCI), GI50 in UACC-62
# Text: as §1, §2
# [9] = test system: HCT-116; assay: COMPARE screening (NCI), GI50 in HCT-116
# Text: as §1, §2
# [10] = test system: HOP-62; assay: COMPARE screening (NCI), GI50 in HOP-62
# Text: as §1, §2
# [11] = Homo sapiens, SN12C, read-out: Cytotoxicity GI50, renal SN12C, renal, SN12C, concentration corresponding to 50% growth inhibition
# [12] = Homo sapiens, MDA-MB-435, read-out: Cytotoxicity GI50, breast MDA-MB-435, breast, MDA-MB-435, concentration corresponding to 50% growth inhibition
# [13] = Homo sapiens, OVCAR-3, read-out: Cytotoxicity GI50, ovarian OVCAR-3, ovarian, OVCAR-3, concentration corresponding to 50% growth inhibition
# [14] = Homo sapiens, DU-145, read-out: Cytotoxicity GI50, prostate DU-145, prostate, DU-145, concentration corresponding to 50% growth inhibition
# [15] = Homo sapiens, UACC-62, read-out: Cytotoxicity GI50, melanoma UACC-62, melanoma, UACC-62, concentration corresponding to 50% growth inhibition
# [16] = Homo sapiens, HCT-116, read-out: Cytotoxicity GI50, colon HCT-116, colon, HCT-116, concentration corresponding to 50% growth inhibition
# [17] = Homo sapiens, HOP-62, read-out: Cytotoxicity GI50, lung HOP-62, lung, HOP-62, concentration corresponding to 50% growth inhibition
MGM (mean GI50 across cell lines) [5],Top 1 Cleavage ([6]; Table 1),Structure (SMILES),GI50 [1],"GI50 [2, 11]","GI50 [3, 12]","GI50 [4, 13]","GI50 [7, 14]","GI50 [8, 15]","GI50 [9, 16]","GI50 [10, 17]",further results
19.1 µM,,"COc1cc2c(cc1OC)-c1ncc3cc(OC)c(OC)c(OC)c3c1C2.Cl [Compound 9ca, 1,2,3,8,9-Pentamethoxy-11H-indeno[1,2-c]isoquinoline Hydrochloride]",14 µM,14.4 µM,16.2 µM,15.9 µM,21.7 µM,7.42 µM,31.8 µM,34.8 µM,"Top 1 Cleavage ([6]; Table 2): + (+, weak activity)"
24 µM,,"COc1cc2c(c(OC)c1OC)-c1ncc3cc(OC)c(OC)c(OC)c3c1C2.Cl [Compound 9cc, 1,2,3,7,8,9-Hexamethoxy-11H-indeno[1,2-c]isoquinoline Hydrochloride]",,17.6 µM,20.8 µM,19.1 µM,26.6 µM,17.4 µM,33.5 µM,35.4 µM,"Top 1 Cleavage ([6]; Table 2, Hydrochloride): 0 (0, no activity)"
,,"CC[C@@]1(O)C(=O)OCc2c1cc1n(c2=O)Cc2cc3ccccc3nc2-1 [B, camptothecin, reference compound]",0.01 µM,0.02 µM,0.04 µM,,0.01 µM,0.01 µM,0.03 µM,0.01 µM,
0.272 µM,"++ (++, similar activity as compound A)","Cl.c1c2c(cc3c1OCO3)-c1ncc3cc4c(cc3c1C2)OCO4 [Compound 9bb, 2,3-Methylenedioxy-8,9-methylenedioxy-11H-indeno[1,2-c]isoquinoline Hydrochloride]",0.598 µM,0.0414 µM,< 0.01 µM,0.0232 µM,,0.19 µM,0.283 µM,0.227 µM,
24.5 µM,,"COc1ccc(OC)c2c3c(ncc12)-c1cc2c(cc1C3)OCO2.Cl [Compound 9db, 1,4-Dimethoxy-8,9-methylenedioxy-11H-indeno[1,2-c]isoquinoline Hydrochloride]",,> 100 µM,> 100 µM,26.9 µM,48.4 µM,> 100 µM,0.249 µM,< 0.01 µM,"Top 1 Cleavage ([6]; Table 2): ++ (++, similar activity as compound A)"
26.3 µM,,"COc1cc2cnc3c(c2c(OC)c1OC)Cc1ccc2c(c1-3)OCO2.Cl [Compound 9eb, 1,2,3-Trimethoxy-7,8-methylenedioxy-11H-indeno[1,2-c]isoquinoline Hydrochloride]",,,> 100 µM,,26.9 µM,22.4 µM,22.1 µM,,"Top 1 Cleavage ([6]; Table 2): ++ (++, similar activity as compound A)"
13.2 µM,,"COc1ccc2c(c1OC)-c1ncc3cc(OC)c(OC)c(OC)c3c1C2.Cl [Compound 9ea, 1,2,3,7,8-Pentamethoxy-11H-indeno[1,2-c]isoquinoline Hydrochloride]",,,,0.529 µM,,3.84 µM,8.81 µM,16 µM,"Top 1 Cleavage ([6]; Table 2): ++ (++, similar activity as compound A)"
,,"COc1cc2c3c(n(CCCNCCO)c(=O)c2cc1OC)-c1cc2c(cc1C3=O)OCO2 [C, reference compound]",,,,,,,,,top1-mediated DNA cleavage band at site 37 [6]: not seen; top1-mediated DNA cleavage band at site 44 [6]: observed
,,"COc1cc2c(c(OC)c1OC)-c1ncc3cc(OC)c(OC)c(OC)c3c1C2.Cl [Compound 9ec, 1,2,3,7,8,9-Hexamethoxy-11H-indeno[1,2-c]isoquinoline Hydrochloride]",,,,,,,,,"GI50 ([2]; human): 20.3 µM; GI50 ([3]; human): 23 µM; GI50 ([4]; human): 21.5 µM; IC50 ([5]; Hydrochloride): 26.3 µM; Top 1 Cleavage ([6]; Table 2, Hydrochloride): ++ (++, similar activity as compound A); GI50 ([7]; human): 29.6 µM; GI50 ([8]; human): 21.1 µM; GI50 ([10]; human): 28.5 µM; GI50 ([9]; human): 27.8 µM"
44.7 µM,"++ (++, similar activity as compound A)","COc1cc2c(cc1OC)-c1ncc3cc(OC)c(OC)cc3c1C2.Cl [Compound 9aa, 2,3,8,9-Tetramethoxy-11H-indeno[1,2-c]isoquinoline Hydrochloride]",> 50 µM,> 50 µM,> 50 µM,> 50 µM,> 50 µM,> 50 µM,> 50 µM,,top1-mediated DNA cleavage band at site 37 [6]: not seen; top1-mediated DNA cleavage band at site 44 [6]: observed
,,"COc1cc2c[n+](CCCN)c3c(c2cc1OC)C(=O)c1cc2c(cc1-3)OCO2 [Compound 7ab, 6-(3-Amino-1-propyl)-2,3-dimethoxy-8,9-(methylenedioxy)-1′-oxo-indeno[1,2-c]isoquinolinium Chloride]",,,,,,,,,IC50 [5]: 0.167 µM
20.9 µM,"0 (0, no activity)","COc1cc2c(c(OC)c1OC)-c1ncc3cc4c(cc3c1C2)OCO4.Cl [Compound 9bc, 7,8,9-Trimethoxy-2,3-methylenedioxy-11H-indeno[1,2-c]isoquinoline Hydrochloride]",,13.4 µM,13.2 µM,15.5 µM,23.2 µM,19.3 µM,18.8 µM,21.7 µM,
,,"COc1cc2c3c(n(C)c(=O)c2cc1OC)-c1cc2c(cc1C3=O)OCO2 [A, reference compound]",,,,,,,,,GI50 [3]: 96 µM; IC50 [5]: 20 µM

Structure (SMILES),MGM (mean GI50 across cell lines) [5],Top 1 Cleavage ([6]; Table 1),GI50 [1],"GI50 [2, 11]","GI50 [3, 12]","GI50 [4, 13]","GI50 [7, 14]","GI50 [8, 15]","GI50 [9, 16]","GI50 [10, 17]",further results
"COc1cc2c(cc1OC)-c1ncc3cc4c(cc3c1C2)OCO4.Cl [Compound 9ba, 8,9-Dimethoxy-2,3-methylenedioxy-11H-indeno [1,2-c]isoquinoline hydrochloride]",33.9 µM,"+++ (+++ and ++++, greater activity than compound A)",23.4 µM,> 100 µM,63.4 µM,61.2 µM,25.3 µM,> 100 µM,11.1 µM,,top1-mediated DNA cleavage band at site 37 [6]: not seen; top1-mediated DNA cleavage band at site 44 [6]: observed
"COC1=C(OC)Cc2c3c(ncc2=C1)=c1cc2c(cc1=C3)OCO2.Cl [Compound 9ab, 2,3-Dimethoxy-8,9-methylenedioxy-1H-indeno[1,2-c]isoquinoline Hydrochloride]",0.0505 µM,"+++ (+++ and ++++, greater activity than compound A)",< 0.01 µM,> 100 µM,< 0.01 µM,,0.0281 µM,< 0.01 µM,> 100 µM,0.0721 µM,top1-mediated DNA cleavage band at site 37 [6]: not seen; top1-mediated DNA cleavage band at site 44 [6]: observed
